# From patent US12559474B2, “Triazine derivatives having virus replication inhibitory activity and pharmaceutical composition comprising the same” (priority 2021, dated 2026)
# Where two headings read alike, the source gives them in different places.
# Tests used:
# [1] = test system: SARS-CoV-2; experiment: microbe, parasite or virus in culture; type: cell-based; settings: Severe acute respiratory syndrome coronavirus 2, VeroE6/TMPRSS2, 72 h, 50% SARS-CoV-2 infected cell death inhibitory concentration, VeroE6/TMPRSS2 cells, 3 days culture
# [2] = target: SARS-CoV-2 3CL protease (Severe acute respiratory syndrome coronavirus 2, UniProt P0DTD1); experiment: biochemical; settings: 50% SARS-CoV-2 3CL protease inhibitory concentration, read-out: IC50
Structure (SMILES),EC50 ([1]; CellTiter-Glo 2.0) [nM],IC50 ([2]; RapidFire MS) [nM],EC50 ([1]; class symbols) [nM],IC50 ([2]; given as class symbols) [nM]
COc1nc2cc(Cl)c(Nc3nc(=O)n(Cc4ccc[nH]c4=O)c(=O)n3Cc3cc(F)c(F)c(F)c3)cc2s1 [II-0418],6240,110,–,–
Cc1c2cc(Nc3nc(=O)n(Cc4ncn(C)n4)c(=O)n3Cc3cc(F)c(F)c(Cl)c3)c(Cl)cc2nn1C [II-0438],–,–,1000 to 10000,< 100
COc1ccc(Nc2nc(=O)n(-c3cncc4ccncc34)c(=O)n2Cc2cc(F)c(F)c(F)c2)cc1 [Compound I-0344],–,–,< 1000,< 100
Cn1cnc(Cn2c(=O)nc(Nc3cc4cn(CCO)nc4cc3Cl)n(Cc3cc(F)c(F)c(F)c3)c2=O)n1 [Compound I-0432],–,–,1000 to 10000,< 100
Cn1cnc(Cn2c(=O)nc(Nc3cc4cn(C)nc4cc3Cl)n(Cc3cc(Cl)c(F)cc3Cl)c2=O)n1 [II-0363],–,–,< 1000,< 100
COc1ccc(Nc2nc(=O)n(Cc3ccc[nH]c3=O)c(=O)n2Cc2cc(F)c(F)c(F)c2F)cc1 [Compound I-0256],–,–,1000 to 10000,< 100
CC(C)(O)Cn1cc2cc(Nc3nc(=O)n(Cc4ncccn4)c(=O)n3Cc3cc(Cl)c(F)cc3F)c(Cl)cc2n1 [II-0240],–,–,1000 to 10000,< 100
C#Cc1cncc(-n2c(=O)nc(Nc3ccc(OC)cc3)n(Cc3cc(F)c(F)c(F)c3)c2=O)c1 [II-0604],9760,470,–,–
O=c1[nH]cccc1Cn1c(=O)nc(NC2(c3ccccc3F)COC2)n(Cc2cc(F)c(F)c(F)c2)c1=O [II-0484],14200,3400,–,–
N#Cc1cc(Cn2c(Nc3cc4c(cc3Cl)OCC4)nc(=O)n(Cc3ccc[nH]c3=O)c2=O)cc(F)c1F [Compound I-0011],–,–,< 1000,< 100
Cc1cncc(-n2c(=O)nc(Nc3cc4c(cc3Cl)OCC4)n(Cc3cc(F)c(F)c(C#N)c3)c2=O)c1 [II-0131],–,–,< 1000,< 100
N#Cc1cc(Cn2c(Nc3ccc4c(c3)CCCO4)nc(=O)n(-c3cncc4ccccc34)c2=O)ccc1F [II-0159],–,–,< 1000,< 100
Cc1cncc(-n2c(=O)nc(Nc3cc4cn(C)nc4cc3Cl)n(Cc3ccc(F)c(C#N)c3)c2=O)c1 [II-0378],–,–,1000 to 10000,< 100
COc1cncc(-n2c(=O)nc(Nc3cc4cn(C)nc4cc3Cl)n(Cc3cc(F)c(F)c(F)c3)c2=O)c1 [II-0495],–,–,< 1000,< 100
COc1cc(C)c(Nc2nc(=O)n(-c3cncc(C)c3)c(=O)n2Cc2ccc(F)c(C#N)c2)cn1 [II-0122],–,–,1000 to 10000,< 100
Cc1cncc(-n2c(=O)nc(Nc3ccc4nn(C)cc4c3)n(Cc3ccc(F)c(Cl)c3)c2=O)c1 [II-0469],–,–,< 1000,< 100
Cc1cncc(-n2c(=O)nc(N3CC4CCC3CO4)n(Cc3cc(F)c(F)c(F)c3)c2=O)c1 (stereo not shown) [II-0375],21600,3800,–,–
O=c1[nH]cccc1Cn1c(=O)nc(N2Cc3ccccc3C2)n(Cc2cc(F)c(F)c(F)c2)c1=O [Compound I-0180],6410,58,–,–
O=C(O)c1ccc(Nc2nc(=O)n(Cc3ccc[nH]c3=O)c(=O)n2Cc2cc(F)c(F)c(F)c2)cc1 [Compound I-0035],–,3500,< 1000,1000 to 10000

Structure (SMILES),EC50 ([1]; CellTiter-Glo 2.0) [nM],IC50 ([2]; RapidFire MS) [nM],EC50 ([1]; class symbols) [nM],IC50 ([2]; given as class symbols) [nM]
Cc1cncc(-n2c(=O)nc(Nc3cc4cn(C)nc4cc3C)n(Cc3cc(F)c(F)c(F)c3)c2=O)c1 [Compound I-0114],–,–,1000 to 10000,< 100
O=c1[nH]cccc1Cn1c(=O)nc(Nc2ccc(O)cc2Cl)n(Cc2cc(F)c(F)c(F)c2)c1=O [Compound I-0330],–,–,1000 to 10000,< 100
Cn1cnc(Cn2c(=O)nc(Nc3cc4c(N5CCCC5)n(C)nc4cc3Cl)n(Cc3cc(F)c(F)c(F)c3)c2=O)n1 [II-0453],–,–,1000 to 10000,< 100
Cc1c2cc(Nc3nc(=O)n(Cc4ncn(C)n4)c(=O)n3Cc3cc(F)c(F)cc3F)c(Cl)cc2nn1C [II-0450],–,–,1000 to 10000,< 100
Cc1cncc(-n2c(=O)nc(Nc3cc4cn(CC(F)(F)F)nc4cc3Cl)n(Cc3cc(F)c(F)c(F)c3)c2=O)c1 [II-0564],–,–,< 1000,< 100
O=c1[nH]cc(Cl)cc1Cn1c(=O)nc(Nc2cc3cn(CCO)nc3cc2Cl)n(Cc2cc(F)c(F)c(F)c2)c1=O [Compound I-0079],–,–,1000 to 10000,< 100
Cc1cncc(-n2c(=O)nc(Nc3cc4cn(CCO)nc4cc3Cl)n(Cc3ccc(F)c(C#N)c3)c2=O)c1 [II-0140],–,–,1000 to 10000,< 100
C#Cc1cc(Cn2c(Nc3cc4cn(C)nc4cc3Cl)nc(=O)n(-c3cncc(C)c3)c2=O)ccc1F [II-0590],–,–,< 1000,< 100
N#Cc1cc(Cn2c(Nc3cc4c(cc3Cl)OCC4)nc(=O)n(Cc3cc(F)c[nH]c3=O)c2=O)ccc1F [Compound I-0271],–,–,1000 to 10000,< 100
CNc1nc2cc(Cl)c(Nc3nc(=O)n(-c4cncc(C)c4)c(=O)n3Cc3cc(F)c(F)c(F)c3)cc2s1 [II-0318],–,–,< 1000,< 100
Cc1cncc(-n2c(=O)nc(Nc3cc4cn(C)nc4cc3Cl)n(Cc3cc(F)cc(C#N)c3)c2=O)c1 [II-0161],–,–,< 1000,< 100
COc1cc(Cl)c(Nc2nc(=O)n(Cc3ccc[nH]c3=O)c(=O)n2Cc2cc(F)c(F)c(F)c2)cn1 [Compound I-0245],–,–,1000 to 10000,< 100
O=c1nc(Nc2cc3cn(CCO)nc3cc2Cl)n(Cc2cc(F)c(F)c(F)c2)c(=O)n1-c1cncc2ccccc12 [Compound I-0288],747,5.8,–,–
O=c1nc(Nc2cc3c(cc2Cl)OCC3)n(Cc2cc(F)c(F)c(F)c2)c(=O)n1-c1cncc2ccccc12 [II-0049],–,–,< 1000,< 100
Cn1cnc(Cn2c(=O)cc(Nc3cc4cn(C)nc4cc3Cl)n(Cc3cc(F)c(F)c(F)c3)c2=O)n1 [II-0430],–,–,1000 to 10000,< 100
Cc1cncc(-n2c(=O)nc(Nc3cc4cn(C)nc4cc3Cl)n(Cc3cc(F)c(F)c(F)c3F)c2=O)c1 [II-0164],195,9,–,–
CC(C)(C)OC(=O)Nc1nc2cc(Cl)c(Nc3nc(=O)n(Cc4ccc[nH]c4=O)c(=O)n3Cc3cc(F)c(F)c(F)c3)cc2s1 [Compound I-0466],–,–,< 1000,< 100
Cc1cncc(-n2c(=O)nc(Nc3ccc4nc(NCC(F)(F)F)sc4c3)n(Cc3cc(F)c(F)c(C#N)c3)c2=O)c1 [II-0295],–,–,1000 to 10000,< 100
O=c1nc(Nc2cc3sc(NC4CC4)nc3cc2Cl)n(Cc2cc(Cl)c(F)cc2F)c(=O)n1Cc1ncccn1 [II-0237],–,–,< 1000,< 100

Structure (SMILES),EC50 ([1]; CellTiter-Glo 2.0) [nM],IC50 ([2]; RapidFire MS) [nM],EC50 ([1]; class symbols) [nM],IC50 ([2]; given as class symbols) [nM]
O=c1[nH]cccc1Cn1c(=O)nc(Nc2cc3c(cc2Cl)OCC3)n(Cc2cc(F)c(F)c(F)c2)c1=O [Compound I-0239],225,3.9,–,–
Cc1cncc(-n2c(=O)nc(N3CC4CCC3CC4)n(Cc3cc(F)c(F)c(F)c3)c2=O)c1 [II-0369],1160,630,–,–
COc1ccc(Nc2nc(=O)n(Cc3cc4ccccc4[nH]c3=O)c(=O)n2Cc2cc(F)c(F)c(F)c2)cc1 [Compound I-0306],–,–,1000 to 10000,< 100
Cc1cncc(-n2c(=O)nc(Nc3cc4oc(C)nc4cc3Cl)n(Cc3ccc(F)c(C#N)c3)c2=O)c1 [II-0108],–,–,1000 to 10000,< 100
O=c1[nH]cc(Cl)cc1Cn1c(=O)nc(Nc2cc3cn(CCN4CCOCC4)nc3cc2Cl)n(Cc2cc(F)c(F)c(F)c2)c1=O [Compound I-0250],–,–,1000 to 10000,< 100
COc1ccc(Nc2nc(=O)n(Cc3ccc[nH]c3=O)c(=O)n2Cc2cc(F)c(F)c(F)c2)c(F)c1 [Compound I-0026],–,–,1000 to 10000,< 100
Cc1cncc(-n2c(=O)nc(Nc3cc4cn(CC5CC5)nc4cc3Cl)n(Cc3ccc(F)c(C#N)c3)c2=O)c1 [II-0345],–,–,< 1000,< 100
Cn1cnc(Cn2c(=O)nc(Nc3cc4sc(NCC(F)F)nc4cc3Cl)n(Cc3cc(Cl)c(F)cc3F)c2=O)n1 [II-0262],–,–,1000 to 10000,< 100
O=c1[nH]cccc1Cn1c(=O)nc(Nc2cc3cn(CC(F)(F)F)nc3cc2Cl)n(Cc2cc(F)c(F)c(F)c2)c1=O [II-0505],–,–,1000 to 10000,< 100
CNc1nc2cc(Cl)c(Nc3nc(=O)n(Cc4ncn(C)n4)c(=O)n3Cc3cc(Cl)c(F)cc3F)cc2o1 [II-0104],–,–,1000 to 10000,< 100
CNc1nc2ccc(Nc3nc(=O)n(-c4cncc(C)c4)c(=O)n3Cc3cc(C#N)c(F)cc3C)cc2s1 [II-0420],–,–,< 1000,< 100
Cn1cnc(Cn2c(=O)cc(Nc3cc4cn(C(F)F)nc4cc3Cl)n(Cc3ccc(F)c(C#N)c3)c2=O)n1 [II-0433],–,–,< 1000,< 100
COc1ccc(Nc2nc(=O)n(-c3cncc4ccccc34)c(=O)n2Cc2cc(F)c(F)c(C#N)c2)cc1 [Compound I-0480],72.6,6.5,–,–
COc1cc(Cl)c(Nc2nc(=O)n(Cc3ccc[nH]c3=O)c(=O)n2Cc2cc(F)c(F)c(F)c2)c(OC)c1 [Compound I-0094],–,–,1000 to 10000,< 100
Cc1cncc(-n2c(=O)nc(Nc3cc4cn(C5CC5)nc4cc3Cl)n(Cc3ccc(F)c(C#N)c3)c2=O)c1 [II-0366],–,–,< 1000,< 100
O=c1[nH]cccc1Cn1c(=O)nc(NCC2CCCC2)n(Cc2cc(F)c(F)c(F)c2)c1=O [II-0371],13300,540,–,–
Cc1cncc(-n2c(=O)nc(Nc3cc4cn(C)nc4cc3Cl)n(Cc3cc(F)c(F)cc3Cc3cnn(C)c3)c2=O)c1 [II-0018],–,–,1000 to 10000,< 100
Cn1cnc(Cn2c(=O)nc(Nc3cc4c(C(F)F)n(C)nc4cc3Cl)n(Cc3cc(F)c(F)cc3F)c2=O)n1 [II-0514],–,–,1000 to 10000,< 100
CNc1nc2ccc(Nc3nc(=O)n(-c4cncc(C)c4)c(=O)n3Cc3cc(C#N)ccc3C)cc2s1 [II-0496],–,–,< 1000,< 100
